From ChEMBL document CHEMBL5360672, “Identification of Novel Dual-Target Estrogen Receptor α Degraders with Tubulin Inhibitory Activity for the Treatment of Endocrine-Resistant Breast Cancer” (J Med Chem, 2023)

Biological target: T1, Estrogen receptor (Homo sapiens) (UniProt P03372)
T1 sequence (whole entry): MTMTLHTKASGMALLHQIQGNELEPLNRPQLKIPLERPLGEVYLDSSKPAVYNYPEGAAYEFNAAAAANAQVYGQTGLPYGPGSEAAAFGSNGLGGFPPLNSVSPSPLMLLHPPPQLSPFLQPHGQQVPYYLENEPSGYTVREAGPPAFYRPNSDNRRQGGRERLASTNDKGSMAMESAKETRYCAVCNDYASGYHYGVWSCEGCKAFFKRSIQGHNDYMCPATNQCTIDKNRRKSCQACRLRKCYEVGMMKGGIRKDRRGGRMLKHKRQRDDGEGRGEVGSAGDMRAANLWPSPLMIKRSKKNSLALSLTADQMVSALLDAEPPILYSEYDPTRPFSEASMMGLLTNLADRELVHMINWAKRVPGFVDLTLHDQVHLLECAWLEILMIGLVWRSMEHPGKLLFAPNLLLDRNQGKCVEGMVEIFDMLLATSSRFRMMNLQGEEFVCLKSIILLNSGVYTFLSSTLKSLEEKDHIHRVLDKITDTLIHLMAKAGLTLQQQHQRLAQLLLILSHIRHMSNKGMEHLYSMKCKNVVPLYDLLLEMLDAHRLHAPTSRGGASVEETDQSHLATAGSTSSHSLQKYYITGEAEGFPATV
Experiment: Binding affinity to human ERalpha assessed as relative binding affinity incubated under vibration for 1 min followed by 2 hrs incubation under dark condition by fluorescence polarization assay relative to estradiol
Settings: time 121.0 min

| SMILES | RBA |
| --- | --- |
| N#C[Se]CC(=O)Nc1ccc(C2=C(c3ccc(O)cc3)C3CC(S(=O)(=O)Oc4ccccc4)C2O3)cc1 (configuration not stated) | 0.57% |
| N#C[Se]CCCCCCOc1ccc(OS(=O)(=O)C2CC3OC2C(c2ccc(O)cc2)=C3c2ccc(O)cc2)cc1 (configuration not stated) | 9.98% |
| COc1ccc(OS(=O)(=O)C2CC3OC2C(c2ccc(NC(=O)CCCCC[Se]C#N)cc2)=C3c2ccc(O)cc2)cc1 (configuration not stated) | 0.97% |
| N#C[Se]CCCCCCCC(=O)Nc1ccc(C2=C(c3ccc(O)cc3)C3CC(S(=O)(=O)Oc4ccccc4)C2O3)cc1 (configuration not stated) | 0.71% |
| Cc1cccc(OS(=O)(=O)C2CC3OC2C(c2ccc(NC(=O)CCCCC[Se]C#N)cc2)=C3c2ccc(O)cc2)c1 (configuration not stated) | 0.99% |
| N#C[Se]CCCCCC(=O)Nc1ccc(C2=C(c3ccc(O)cc3)C3CC(S(=O)(=O)Oc4ccc5ccccc5c4)C2O3)cc1 (configuration not stated) | 4.51% |

Biological target: Estrogen receptor beta (Homo sapiens) (UniProt Q92731)
Experiment: Binding affinity to human ERbeta assessed as relative binding affinity incubated under vibration for 1 min followed by 2 hrs incubation under dark condition by fluorescence polarization assay relative to estradiol
Settings: time 121.0 min

Sequence of Estrogen receptor beta (Homo sapiens) (Q92731 whole entry): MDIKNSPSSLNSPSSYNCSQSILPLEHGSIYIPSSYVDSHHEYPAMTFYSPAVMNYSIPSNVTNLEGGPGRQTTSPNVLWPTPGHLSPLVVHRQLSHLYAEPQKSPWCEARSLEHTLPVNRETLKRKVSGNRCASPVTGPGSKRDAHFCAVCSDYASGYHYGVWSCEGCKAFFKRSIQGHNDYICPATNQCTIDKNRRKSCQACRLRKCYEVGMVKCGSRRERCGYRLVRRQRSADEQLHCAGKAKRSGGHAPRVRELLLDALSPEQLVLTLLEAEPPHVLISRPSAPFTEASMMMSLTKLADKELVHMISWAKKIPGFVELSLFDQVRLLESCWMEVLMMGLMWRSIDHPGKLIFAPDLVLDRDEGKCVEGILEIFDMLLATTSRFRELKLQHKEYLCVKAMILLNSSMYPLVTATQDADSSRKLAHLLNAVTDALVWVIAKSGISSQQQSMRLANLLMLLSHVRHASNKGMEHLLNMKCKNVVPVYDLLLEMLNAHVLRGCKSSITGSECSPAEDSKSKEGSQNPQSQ

| SMILES | RBA |
| --- | --- |
| N#C[Se]CC(=O)Nc1ccc(C2=C(c3ccc(O)cc3)C3CC(S(=O)(=O)Oc4ccccc4)C2O3)cc1 (configuration not stated) | 0.24% |
| N#C[Se]CCCCCCOc1ccc(OS(=O)(=O)C2CC3OC2C(c2ccc(O)cc2)=C3c2ccc(O)cc2)cc1 (configuration not stated) | 1.73% |
| COc1ccc(OS(=O)(=O)C2CC3OC2C(c2ccc(NC(=O)CCCCC[Se]C#N)cc2)=C3c2ccc(O)cc2)cc1 (configuration not stated) | 0.05% |
| N#C[Se]CCCCCCCC(=O)Nc1ccc(C2=C(c3ccc(O)cc3)C3CC(S(=O)(=O)Oc4ccccc4)C2O3)cc1 (configuration not stated) | 2.06% |
| Cc1cccc(OS(=O)(=O)C2CC3OC2C(c2ccc(NC(=O)CCCCC[Se]C#N)cc2)=C3c2ccc(O)cc2)c1 (configuration not stated) | 1.29% |
| N#C[Se]CCCCCC(=O)Nc1ccc(C2=C(c3ccc(O)cc3)C3CC(S(=O)(=O)Oc4ccc5ccccc5c4)C2O3)cc1 (configuration not stated) | 0.23% |

Species: Homo sapiens
Experiment: Selectivity ratio of relative binding affinity for human ERalpha to relative binding affinity to human ERbeta
Settings: not given

| SMILES | Selectivity ratio |
| --- | --- |
| N#C[Se]CC(=O)Nc1ccc(C2=C(c3ccc(O)cc3)C3CC(S(=O)(=O)Oc4ccccc4)C2O3)cc1 (configuration not stated) | 2.38 |
| N#C[Se]CCCCCCOc1ccc(OS(=O)(=O)C2CC3OC2C(c2ccc(O)cc2)=C3c2ccc(O)cc2)cc1 (configuration not stated) | 5.77 |
| COc1ccc(OS(=O)(=O)C2CC3OC2C(c2ccc(NC(=O)CCCCC[Se]C#N)cc2)=C3c2ccc(O)cc2)cc1 (configuration not stated) | 19.4 |
| N#C[Se]CCCCCCCC(=O)Nc1ccc(C2=C(c3ccc(O)cc3)C3CC(S(=O)(=O)Oc4ccccc4)C2O3)cc1 (configuration not stated) | 0.34 |
| Cc1cccc(OS(=O)(=O)C2CC3OC2C(c2ccc(NC(=O)CCCCC[Se]C#N)cc2)=C3c2ccc(O)cc2)c1 (configuration not stated) | 0.77 |
| N#C[Se]CCCCCC(=O)Nc1ccc(C2=C(c3ccc(O)cc3)C3CC(S(=O)(=O)Oc4ccc5ccccc5c4)C2O3)cc1 (configuration not stated) | 19.6 |

Test system: MCF7
Experiment: Antiproliferative activity against ERalpha positive human MCF7 cells assessed as inhibition of cell proliferation incubated for 72 hrs by CCK8 assay
Assay type: functional, cell-based
Settings: MCF7, 72 h

| SMILES | IC50 |
| --- | --- |
| N#C[Se]CC(=O)Nc1ccc(C2=C(c3ccc(O)cc3)C3CC(S(=O)(=O)Oc4ccccc4)C2O3)cc1 (configuration not stated) | 2.76 µM |
| N#C[Se]CCCCCCOc1ccc(OS(=O)(=O)C2CC3OC2C(c2ccc(O)cc2)=C3c2ccc(O)cc2)cc1 (configuration not stated) | 5.14 µM |
| COc1ccc(OS(=O)(=O)C2CC3OC2C(c2ccc(NC(=O)CCCCC[Se]C#N)cc2)=C3c2ccc(O)cc2)cc1 (configuration not stated) | 2.62 µM |
| N#C[Se]CCCCCCCC(=O)Nc1ccc(C2=C(c3ccc(O)cc3)C3CC(S(=O)(=O)Oc4ccccc4)C2O3)cc1 (configuration not stated) | 1.71 µM |
| Cc1cccc(OS(=O)(=O)C2CC3OC2C(c2ccc(NC(=O)CCCCC[Se]C#N)cc2)=C3c2ccc(O)cc2)c1 (configuration not stated) | 0.71 µM |
| N#C[Se]CCCCCC(=O)Nc1ccc(C2=C(c3ccc(O)cc3)C3CC(S(=O)(=O)Oc4ccc5ccccc5c4)C2O3)cc1 (configuration not stated) | 3 µM |

Test system: T47D
Experiment: Antiproliferative activity against ERalpha positive human T47D cells assessed as inhibition of cell proliferation incubated for 72 hrs by CCK8 assay
Assay type: functional, cell-based
Settings: not given

| SMILES | IC50 |
| --- | --- |
| N#C[Se]CC(=O)Nc1ccc(C2=C(c3ccc(O)cc3)C3CC(S(=O)(=O)Oc4ccccc4)C2O3)cc1 (configuration not stated) | 24.6 µM |
| N#C[Se]CCCCCCOc1ccc(OS(=O)(=O)C2CC3OC2C(c2ccc(O)cc2)=C3c2ccc(O)cc2)cc1 (configuration not stated) | 7.47 µM |
| COc1ccc(OS(=O)(=O)C2CC3OC2C(c2ccc(NC(=O)CCCCC[Se]C#N)cc2)=C3c2ccc(O)cc2)cc1 (configuration not stated) | 1.97 µM |
| N#C[Se]CCCCCCCC(=O)Nc1ccc(C2=C(c3ccc(O)cc3)C3CC(S(=O)(=O)Oc4ccccc4)C2O3)cc1 (configuration not stated) | > 31 µM |
| Cc1cccc(OS(=O)(=O)C2CC3OC2C(c2ccc(NC(=O)CCCCC[Se]C#N)cc2)=C3c2ccc(O)cc2)c1 (configuration not stated) | 13.3 µM |
| N#C[Se]CCCCCC(=O)Nc1ccc(C2=C(c3ccc(O)cc3)C3CC(S(=O)(=O)Oc4ccc5ccccc5c4)C2O3)cc1 (configuration not stated) | > 31 µM |

Test system: not listed separately
Experiment: Cytotoxicity against human MCF-10A cells assessed as inhibition of cell proliferation incubated for 72 hrs by CCK8 assay
Assay type: toxicity, cell-based
Settings: not given

| SMILES | IC50 at 72 h |
| --- | --- |
| N#C[Se]CC(=O)Nc1ccc(C2=C(c3ccc(O)cc3)C3CC(S(=O)(=O)Oc4ccccc4)C2O3)cc1 (configuration not stated) | 38.6 µM |
| N#C[Se]CCCCCCOc1ccc(OS(=O)(=O)C2CC3OC2C(c2ccc(O)cc2)=C3c2ccc(O)cc2)cc1 (configuration not stated) | 10.8 µM |
| COc1ccc(OS(=O)(=O)C2CC3OC2C(c2ccc(NC(=O)CCCCC[Se]C#N)cc2)=C3c2ccc(O)cc2)cc1 (configuration not stated) | 13.1 µM |
| N#C[Se]CCCCCCCC(=O)Nc1ccc(C2=C(c3ccc(O)cc3)C3CC(S(=O)(=O)Oc4ccccc4)C2O3)cc1 (configuration not stated) | 20.5 µM |
| Cc1cccc(OS(=O)(=O)C2CC3OC2C(c2ccc(NC(=O)CCCCC[Se]C#N)cc2)=C3c2ccc(O)cc2)c1 (configuration not stated) | 30.2 µM |
| N#C[Se]CCCCCC(=O)Nc1ccc(C2=C(c3ccc(O)cc3)C3CC(S(=O)(=O)Oc4ccc5ccccc5c4)C2O3)cc1 (configuration not stated) | 22.6 µM |

Test system: not listed separately
Experiment: Selectivity index, ratio of IC50 for cytotoxicity against human MCF-10A cells to IC50 for antiproliferative activity against human MCF7 cells
Assay type: toxicity, cell-based
Settings: MCF-10A cells and MCF7 cells, read-out: Ratio IC50

| SMILES | selectivity ratio |
| --- | --- |
| N#C[Se]CC(=O)Nc1ccc(C2=C(c3ccc(O)cc3)C3CC(S(=O)(=O)Oc4ccccc4)C2O3)cc1 (configuration not stated) | 14 |
| N#C[Se]CCCCCCOc1ccc(OS(=O)(=O)C2CC3OC2C(c2ccc(O)cc2)=C3c2ccc(O)cc2)cc1 (configuration not stated) | 2.1 |
| COc1ccc(OS(=O)(=O)C2CC3OC2C(c2ccc(NC(=O)CCCCC[Se]C#N)cc2)=C3c2ccc(O)cc2)cc1 (configuration not stated) | 4.99 |
| N#C[Se]CCCCCCCC(=O)Nc1ccc(C2=C(c3ccc(O)cc3)C3CC(S(=O)(=O)Oc4ccccc4)C2O3)cc1 (configuration not stated) | 12 |
| Cc1cccc(OS(=O)(=O)C2CC3OC2C(c2ccc(NC(=O)CCCCC[Se]C#N)cc2)=C3c2ccc(O)cc2)c1 (configuration not stated) | 42.5 |
| N#C[Se]CCCCCC(=O)Nc1ccc(C2=C(c3ccc(O)cc3)C3CC(S(=O)(=O)Oc4ccc5ccccc5c4)C2O3)cc1 (configuration not stated) | 7.52 |
